The values below come from paper PMC9677951 (Journal of medicinal chemistry, 2020).

One may read the EC50 as the concentration that produces a half-maximal response.

Where “and” joins values, the source holds several entries; their conditions need not be identical. Identical values can stand only once. Entries after “also recorded” stand apart in the source; their conditions may differ. Like-named read-outs stand apart in the source and are kept apart here.

One data set relates to Kunming mice. As to the kind of experiment: Acute toxicity study in Kunming mice. Conditions: single oral dose 2000 mg/kg. The data set is classed as in vivo.
For data set [1], the system named is WT virus and NNRTI-resistant HIV-1 strains. As to the kind of experiment: Broad-spectrum anti-HIV-1 activity against WT and NNRTI-resistant strains. The data set is classed as cell-based. Conditions: Human immunodeficiency virus 1, read-out: EC50 range, broad-spectrum activity.
For data set [2], the system named is HIV-1 F227L+V106A. The note with it: read-out: EC50 F227L+V106A; previously reported; ref [9]-[13]; cited from earlier work.
Data set [3] has as its system WT HIV-1 (IIIB). The note with it: read-out: EC50 WT; previously reported; ref [9]-[13]; cited from earlier work.
For data set [4], the system named is HIV-1 strain RES056 (K103N+Y181C). Conditions: read-out: EC50 RES056, previously reported, ref [9]-[13], cited from earlier work.
Data set [5] has as its system HIV-1 E138K. Conditions: read-out: EC50 E138K; previously reported; ref [9]-[13]; cited from earlier work.
In a further data set the test system is HIV-1 K103N. Conditions: read-out: EC50 K103N; previously reported; ref [9]-[13]; cited from earlier work.
In data set [6] the test system is HIV-1 strain RES056 (K103N+Y181C). The note with it: read-out: EC50 RES056, MT-4 cells, MTT method. In general terms: Formazan colour is commonly taken as a measure of viable cells.
Data set [7] has as its system WT HIV-1 (IIIB). The note with it: read-out: EC50 IIIB, MT-4 cells, MTT method.
Data set [8] deals with HIV-1 E138K. As to the kind of experiment: Anti-HIV-1 activity against E138K mutant in MT-4 cells, MTT method. The note with it: Human immunodeficiency virus 1, MT4, read-out: EC50 E138K. The data set is classed as cell-based.
A further data set concerns HIV-1 Y181C. As to the kind of experiment: Anti-HIV-1 activity against Y181C mutant in MT-4 cells, MTT method. The note with it: Human immunodeficiency virus 1, MT4, read-out: EC50 Y181C. The data set is classed as cell-based.
For another data set, the system named is HIV-1 Y188L. As to the kind of experiment: Anti-HIV-1 activity against Y188L mutant in MT-4 cells, MTT method. Conditions: Human immunodeficiency virus 1, MT4, read-out: EC50 Y188L. The data set is classed as cell-based.
Data set [9] deals with WT HIV-1 (IIIB). As to the kind of experiment: microbe, parasite or virus in culture. Conditions: Human immunodeficiency virus 1, IIIB, MT4, read-out: EC50 IIIB.
The subject of data set [10] is HIV-1 F227L+V106A. As to the kind of experiment: Anti-HIV-1 activity against F227L+V106A mutant in MT-4 cells, MTT method. The data set is classed as cell-based. Conditions: Human immunodeficiency virus 1, MT4, read-out: EC50 F227L+V106A.

For `Cc1cc(/C=C/C#N)cc(C)c1Oc1nc(Nc2ccc(C#N)c(F)c2)nc2ccsc12` [Compound 24b, (E)-4-((4-(4-(2-cyanovinyl)-2,6-dimethylphenoxy)thieno[3,2-d]pyrimidin-2-yl)amino)-2-fluorobenzonitrile], in the data set on Kunming mice, the “Acute toxicity: behaviors and body weight vs control group” value was “no abnormal behaviors or significant changes of body weight”. In addition, the “Acute toxicity: mortality or poisoning symptoms” value in the data set on Kunming mice (following 7 days, 2000 mg/kg) is “no mortality or poisoning symptoms; also recorded: no acute toxicity”. Also, the EC50 in [1] lay within 3.6 to 21.5 nM.

For `Cc1cc(C#N)cc(C)c1Oc1nc(NC2CCN(Cc3ccc(S(N)(=O)=O)cc3)CC2)nc2ccsc12` [Compound K-5a2], the EC50 with HIV-1 F227L+V106A [2] was 4.2 ± 1.2 nM; in the data set on WT HIV-1 (IIIB) [3] it was 1.4 ± 0.4 nM; in data set [4] (listed as 3), 30.6 nM and 31 nM; with HIV-1 E138K [5] it was 2.9 nM; in the data set on HIV-1 K103N, 2.9 nM.

`O=C1Nc2ccc(Cl)cc2[C@@](C#CC2CC2)(C(F)(F)F)O1` [EFV, efavirenz]: the EC50 came to 260 ± 47.6 nM in data set [6] and 2.49 ± 0.547 nM in the data set on WT HIV-1 (IIIB) [7].

Consider `Cc1cc(C#N)cc(C)c1Oc1nc(Nc2ccc(C#N)cc2)nc(N)c1Br` [ETR, Etravirine], for which the EC50 was 32.2 ± 12.2 nM in [6]; 29 ± 7.7 nM in the data set with HIV-1 F227L+V106A [2]; 4.1 ± 0.1 nM in the data set with WT HIV-1 (IIIB) [3]; 17 ± 1.8 nM in data set [4]; 9.76 ± 6.9 nM in the data set on HIV-1 E138K [8]; 14.5 ± 8.22 nM in the data set on HIV-1 Y181C. Also, the concentration giving a half-maximal response (EC50) in the data set on HIV-1 Y188L is 20.4 ± 8.64 nM; in the data set on WT HIV-1 (IIIB) [9] it was 2.55 ± 0.37 nM; with HIV-1 E138K [5], 14 ± 2.2 nM; in the data set on HIV-1 K103N it was 2.4 ± 0.6 nM; in the data set with HIV-1 F227L+V106A [10] it was 19.7 ± 7.3 nM.

Consider `Cc1cc(/C=C/C#N)cc(C)c1Nc1ccnc(Nc2ccc(C#N)cc2)n1` [RPV, rilpivirine], for which the concentration giving a half-maximal response (EC50) was 1 ± 0.3 nM with WT HIV-1 (IIIB) [3] and 11 ± 1.9 nM in data set [4].
